Counter-ions that a name gives are not always drawn.
Tests used:
[1] = biological target: Class C β-lactamase of Enterobacter cloacae P99 (Enterobacter cloacae, UniProt P05364); assay type: biochemical; conditions: for IC50: 10 minute incubation of enzyme and inhibitor, nitrocefin substrate, read-out: IC50 (nM) E. cloacea P99
Procedure: (§1) The IC50 value of each compound was determined as follows. Following a 10 minute incubation of a dilute solution of enzyme (2.56 nm) and inhibitor (<0.64 mM), a […] of this incubation mixture was then further diluted into 1 mL nitrocefin solution, and the rate of hydrolysis was measured during a 1 minute period by monitoring the absorbance of nitrocefin as a function of time.

[2] = biological target: E. cloacae SC 12368 β-lactamase (Enterobacter cloacae, UniProt P05364); assay type: biochemical; conditions: 10 minute incubation of enzyme and inhibitor; nitrocefin substrate; read-out: IC50 (nM) E. cloacea SC12368
Procedure: as §1

[3] = biological target: E. coli. W3310 β-lactamase (TEM2) (Escherichia coli, UniProt P62593, Q37K); conditions: read-out: IC50 (nM) E. Coli WC3310; 10 minute incubation of enzyme and inhibitor; nitrocefin substrate

In the case of CC(=O)OCC1=C(C(=O)O)N2C(=O)C(=C(Br)Br)C2SC1 (stereo not shown) [Compound 6a, Sodium salt of 7-[dibromomethylene] cephalosporanic acid], the IC50 [1] is reported as > 20000 nM, the IC50 [2] is reported as > 20000 nM and the IC50 [3] is reported as > 20000 nM.

CC(=O)OCC1=C(C(=O)O)N2C(=O)C(=C(Cl)Cl)C2SC1 (stereo not shown) [Compound 6b, Sodium salt of 7-[dichloromethylene] cephalosporanic acid] was tested, and the IC50 [1] was > 20000 nM, the IC50 [2] was > 20000 nM and the IC50 [3] was > 20000 nM.

In the case of CC(=O)OCC1=C(C(=O)O)N2C(=O)/C(=C/c3ccccn3)C2SC1 (stereo not shown) [Compound 6e, Sodium salt of ^7-[(Z)-(2′-pyridyl)methylene] cephalosporanic acid], the IC50 [1] is reported as > 20000 nM, the IC50 [2] is reported as > 20000 nM and the IC50 [3] is reported as > 20000 nM.

In the case of CC(=O)OCC1=C(C(=O)O)N2C(=O)/C(=C/C(=O)OC(C)(C)C)C2SC1 (stereo not shown) [Compound 6g, Sodium salt of 7-[(Z)-t-butoxycarbonylmethylene] cephlosporanic acid], the IC50 [1] is reported as 2500 nM, the IC50 [2] is reported as > 20000 nM and the IC50 [3] is reported as > 20000 nM.

With CC(=O)/C=C1/C(=O)N2C(C(=O)O)=C(COC(C)=O)CSC12 (stereo not shown) [Compound 6h, Sodium salt of 7-[(Z)-acetylmethylene] cephlosporanic acid] the IC50 [1] was > 20000 nM, the IC50 [2] was > 20000 nM and the IC50 [3] was > 20000 nM.

For CON(C)C(=O)/C=C1/C(=O)N2C(C(=O)O)=C(COC(C)=O)CSC12 (stereo not shown) [Compound 6k, Sodium of salt of 7-[(Z)-N-methoxy-N-methylamino-carbonylmethylene] cephlosporanic acid], the IC50 [1] was > 20000 nM, the IC50 [2] was > 20000 nM and the IC50 [3] was > 20000 nM.

CC(=O)OCC1=C(C(=O)O)N2C(=O)/C(=C\Br)C2SC1 (stereo not shown) [Compound 6l, Sodium salt of 7-[(E)-bromomethylene] cephalosporanic acid] was tested, and the IC50 [1] was > 20000 nM, the IC50 [2] was > 20000 nM and the IC50 [3] was > 20000 nM.

In the case of CC(=O)OCC1=C(C(=O)O)N2C(=O)/C(=C/C(C)(C)C)C2SC1 (stereo not shown) [Compound 6m, Sodium salt of 7-[(Z)-t-butylmethylene] cephalosporanic acid], the IC50 [1] is reported as > 20000 nM, the IC50 [2] is reported as > 20000 nM and the IC50 [3] is reported as > 20000 nM.

For CC(=O)OCC1=C(C(=O)O)N2C(=O)C(=C(Br)Br)C2S(=O)(=O)C1 (stereo not shown) [Compound 7a, Sodium salt of 7-[dibromomethylene] cephalosporanic acid sulfone], the IC50 [1] was > 20000 nM, the IC50 [2] was > 20000 nM and the IC50 [3] was > 20000 nM.

For CC(=O)OCC1=C(C(=O)O)N2C(=O)C(=C(Cl)Cl)C2S(=O)(=O)C1 (stereo not shown) [Compound 7b, Sodium salt of 7-[dichloromethylene] cephalosporanic acid sulfone], the IC50 [1] was > 20000 nM, the IC50 [2] was > 20000 nM and the IC50 [3] was 8300 nM.

In the case of CC(=O)OCC1=C(C(=O)O)N2C(=O)/C(=C\c3ccccc3)C2S(=O)(=O)C1 (stereo not shown) [Compound 7c, Sodium salt of 7-[(E)-benzylidene] cephalosporanic acid sulfone], the IC50 [1] is reported as > 20000 nM, the IC50 [2] is reported as > 20000 nM and the IC50 [3] is reported as > 20000 nM.

CC(=O)OCC1=C(C(=O)O)N2C(=O)/C(=C/c3ccccc3)C2S(=O)(=O)C1 (stereo not shown) [Compound 7d, Sodium salt of 7-[(Z)-benzylidene] cephalosporanic acid sulfone] was tested, and the IC50 [1] was 6250 nM, the IC50 [2] was 6800 nM and the IC50 [3] was > 20000 nM.

For CC(=O)OCC1=C(C(=O)[O-])N2C(=O)/C(=C/c3ccccn3)C2S(=O)(=O)C1.[Na+] (stereo not shown) [Compound 7e, Sodium salt of 7-[(Z)-(2′-pyridyl)methylene] cephalosporanic acid sulfone], the “fold increase in activity of sulfone over its sulfide 6e” value [1] was 1300 fold, the “fold increase in activity over tazobactam” value [1] was 20 fold and the IC50 [1] was 25 nM. It also gave an IC50 [2] of 25 nM and an IC50 [3] of 800 nM.

With CC(=O)OCC1=C(C(=O)O)N2C(=O)/C(=C/CO)C2S(=O)(=O)C1 (stereo not shown) [Compound 7j, Sodium salt of 7-[(Z)-hydroxymethylmethylene] cephalosporanic acid sulfone] the IC50 [1] was > 20000 nM, the IC50 [2] was > 20000 nM and the IC50 [3] was > 20000 nM.

CC(=O)OCC1=C(C(=O)O)N2C(=O)/C(=C\Br)C2S(=O)(=O)C1 (stereo not shown) [Compound 7l, Sodium salt of 7-(E)-[bromomethylene] cephalosporanic acid sulfone] was tested, and the IC50 [1] was > 20000 nM, the IC50 [2] was > 20000 nM and the IC50 [3] was > 20000 nM.

For CC(=O)OCC1=C(C(=O)O)N2C(=O)/C(=C/C(C)(C)C)C2S(=O)(=O)C1 (stereo not shown) [Compound 7m, Sodium salt of 7-[(Z)-t-butylmethylene] cephalosporanic acid sulfone], the IC50 [1] was > 20000 nM, the IC50 [2] was > 20000 nM and the IC50 [3] was > 20000 nM.

“Sodium salt of 7-[(Z)-t-butoxymethylene] cephalosporanic acid sulfone [Compound 7g]” showed an IC50 [1] of 7800 nM and an IC50 [2] of 5900 nM.
